Columns and labels:
NMDA receptors = test: Cortical slice studies: antagonism of responses to NMDA in rat cortical slice; type: cell-based; settings: from righthand shift in the NMDA concentration-response curve, read-out: apparent equilibrium constant (Kb)
Protocol: The compounds useful in this invention potently and selectively block responses to NMDA in a brain slice from rat cortex, inhibit glycine binding to the strychnine-insensitive site present on the NMDA receptor, and block the potentiation of NMDA responses by glycine in cultured cortical neurones.
The effects of compounds of the invention on responses to NMDA were assessed using the rat cortical slice as described by Wong et al., Proc. Natl. Acad. Sci. USA, 1986, 83, 7104. The apparent equilibrium constant (Kb) was calculated from the righthand shift in the NMDA concentration-response curve produced by the compound under test.

NMDA-induced excitation = settings: Evans et al., Brain Research, 1978, 148, 536-542; cited from earlier work

C[C@H]1CN(O)C(=O)[C@H]1N (relative stereo) [Example 1, cis-3-Amino-1-hydroxy-4-methylpyrrolidin-2-one]
Kb (NMDA receptors): < 100 µM

C[C@@H]1CN(O)C(=O)[C@@H]1N [Example 2, (3R,4R)-3-Amino-1-hydroxy-4-methylpyrrolidin-2-one]
Kb (NMDA receptors): < 100 µM

NC1CCN(O)C1=O (stereo not drawn) [HA-966, 3-amino-1-hydroxypyrrolidin-2-one]
antagonism of NMDA-induced excitation (in words) (NMDA-induced excitation): able to antagonise selectively NMDA-induced excitation

Source: US4925867A, “Hydrocarbon substituted pyrrolidinones, intermediates therefor, and anti-convulsant use thereof” (Merck Sharp & Dohme Ltd., priority 1988, dated 1990)
